For this experiment, the target named is T1, α5-GABAA receptor (Homo sapiens, UniProt P18507+P31644).
T1 construct: expressed in transfected cells; host or cells: HEK293, monoclonal stably transfected line
Briefly: Cell-level screening: whole cell patch clamp, inverse agonist efficacy on α5-GABAA receptor expressed in HEK293. As to conditions: drug 100 nM, GABA 0.05 μM, HEK293 expressing α5, β3 and γ2 subunits, clamped at −60 mV; read-out: Compound inverse agonist efficacy %. Type of experiment: cell-based. On the procedure:
The inventors used electrophysiological methods to determine the inverse agonist efficacy of the drugs to be tested on the α5-GABAA receptor. The detailed methods are as follows:
Different subunits of GABAA receptors were expressed in human […] cell line 293 (HEK293) cell line. The cells were cultured in a culture medium and used as a cell model for screening pain inhibiting drugs. The α, β and γ subunits are necessary to form complete functional GABAA receptors. In this embodiment, the inventors had established the following cell model: α5 subunit (see GenBank Accession No. NM_000810.3 for protein sequences), β3 subunit (see GenBank Accession No. NM_000814.5 for protein sequences) and γ2 subunit (see GenBank Accession No. NM_000816.3 for protein sequences) were expressed in HEK293 cell line at the same time, followed by screening the monoclonal cell line. This cell line contained α5-GABAA receptor and had complete GABAA receptor function.
The monoclonal stably transfected HEK-293 cells expressing α5-GABAA receptor were cultured in 10 cm culture dishes and passaged when the cells grew to 80%-90%. During passaging, the culture medium was aspirated first, then 3 mL of DPBS phosphate buffer salt (Gibco™) was added to the culture dishes, and the culture dishes were shaken slightly, and DPBS was aspirated. 1 mL of trypsin (TrypLE Express, Gibco™) was added thereto, and the cells were digested at 37° C. for 1-2 minutes. Then 3 mL of complete medium (DMEM+10% FBS (Gibco™)) was added and the cells at the bottom of the culture dishes were dispersed. The cell suspension were transferred to a 15 mL centrifugal tube (Corning) and then centrifuged at 200 g for 3 minutes. The supernatant was discarded, 4 mL of complete medium was added, and the cells were gently blown and resuspended for use. If cell passaging was performed, the cell suspension was diluted at a ratio of 1:5 or 1:10. If cells for electrophysiology use were prepared, the cell suspension was diluted in a ratio of 1:12, then added into a 24-well dish (Corning™) in which glass slides were placed and pretreated with Poly-D-Lysine, and the cells were tested after being attached to the walls. The culture time of cells for electrophysiology use was no more than 48 hours.
Drug concentration setting: the final drug concentration used in drug screening was 100 nM, and the GABA concentration range was 0.05 μM. The final drug concentrations used in the dose-inversal agonistic efficiency (%) test were 0.3 nM, 3 nM, 10 nM, 30 nM, 100 nM and 300 nM. The whole cell patch clamp technique was used in electrophysiological experiments, which could refer to the literature (I. Lecker, Y. Yin, D. S. Wang and B. A. Orser, (2013) Potentiation of GABAA receptor activity by volatile anaesthetics is reduced by α5-GABAA receptor-preferring inverse agonists, British Journal of Anaesthesia 110 (S1): i73-i81). The components of extracellular solution (ECS) for electrophysiology use were as follows: 150 mM NaCl, 5 mM KCl, 2.5 mM CaCl2), 1 mM MgCl2, 10 mM HEPES and 10 mM glucose (pH 7.4); electrode internal solutions for electrophysiology use were as follows: 140 mM CsCl, 11 mM EGTA, 10 mM HEPES, 2 mM CaCl2), 1 mM MgCl2, 4 mM MgATP, 2 mM TEA (pH 7.3). The signal acquisition used an EPC-10 amplifier and the PatchMaster software (HEKA). The recording electrode was drawn using borosilicate glass, and the electrode resistance was 4 to 6 MΩ. The ALA-VC3-8PP™ system was used for extracellular administration. Separate cells that grew independently was selected for recording. During recording, the cell membrane potential was clamped at −60 mV. During experiment, an extracellular solution was applied to the cells for about 20 seconds. When the baseline reached to a stable state, the extracellular solution was switched to GABA. Then the current induced by GABA could be detected. […]
On the technique in general: The patch-clamp technique gives a direct electrical read-out from membranes.

T1 sequence (P31644 32-462): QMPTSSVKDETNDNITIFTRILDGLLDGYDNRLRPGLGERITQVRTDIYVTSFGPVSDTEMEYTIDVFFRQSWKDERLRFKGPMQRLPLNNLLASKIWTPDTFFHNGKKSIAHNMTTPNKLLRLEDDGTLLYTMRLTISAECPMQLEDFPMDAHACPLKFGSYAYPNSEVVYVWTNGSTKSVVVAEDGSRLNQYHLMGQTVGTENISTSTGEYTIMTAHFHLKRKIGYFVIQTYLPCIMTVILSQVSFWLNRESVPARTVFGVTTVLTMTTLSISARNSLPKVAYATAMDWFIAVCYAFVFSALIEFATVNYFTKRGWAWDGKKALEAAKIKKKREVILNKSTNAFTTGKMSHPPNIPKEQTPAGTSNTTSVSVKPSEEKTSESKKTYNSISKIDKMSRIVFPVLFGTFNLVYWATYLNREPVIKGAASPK
T1 sequence (P28472 26-473 partner): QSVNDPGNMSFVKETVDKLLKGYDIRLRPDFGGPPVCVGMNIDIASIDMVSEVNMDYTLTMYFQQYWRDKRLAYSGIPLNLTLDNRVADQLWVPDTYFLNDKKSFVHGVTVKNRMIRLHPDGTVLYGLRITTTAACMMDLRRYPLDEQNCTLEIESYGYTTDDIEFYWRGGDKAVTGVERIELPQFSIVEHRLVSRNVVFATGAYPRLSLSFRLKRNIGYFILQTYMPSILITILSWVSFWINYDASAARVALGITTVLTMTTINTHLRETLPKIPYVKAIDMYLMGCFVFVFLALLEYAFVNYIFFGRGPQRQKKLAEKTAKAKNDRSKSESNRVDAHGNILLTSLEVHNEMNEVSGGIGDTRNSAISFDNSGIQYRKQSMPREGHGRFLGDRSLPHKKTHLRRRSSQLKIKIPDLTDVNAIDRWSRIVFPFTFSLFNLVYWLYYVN
T1 sequence (P18507 40-467 isoform P18507-1 limits assumed): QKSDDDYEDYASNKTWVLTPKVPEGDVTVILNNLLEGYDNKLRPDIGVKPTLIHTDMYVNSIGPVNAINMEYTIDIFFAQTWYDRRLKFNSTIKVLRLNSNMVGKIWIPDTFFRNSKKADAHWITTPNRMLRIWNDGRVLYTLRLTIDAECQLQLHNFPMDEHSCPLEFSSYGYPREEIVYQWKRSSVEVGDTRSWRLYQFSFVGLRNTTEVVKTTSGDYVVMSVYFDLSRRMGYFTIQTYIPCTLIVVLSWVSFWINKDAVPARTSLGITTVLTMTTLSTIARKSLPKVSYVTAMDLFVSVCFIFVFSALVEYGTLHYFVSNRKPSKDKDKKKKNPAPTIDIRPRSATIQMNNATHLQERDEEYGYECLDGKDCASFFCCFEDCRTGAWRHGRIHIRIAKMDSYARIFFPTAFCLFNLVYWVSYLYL

Regarding `CCN1Cc2nc(COc3nn4c(-c5cc(C)on5)nnc4cc3OC)ccc2C1=O` [Embodiment 67], the inhibition at 0.1 µM is 58%.

Take `COc1cc2nnc(-c3cc(C)on3)n2nc1OCc1ccc(C2CCCN2)cn1` (stereo not shown) [Embodiment 69, 3-(7-Methoxy-6-((5-(pyrrolidin-2-yl)pyridin-2-yl)methoxy)-[1,2,4]triazolo[4,3-b]pyridazin-3-yl)-5-methylisoxazole]: the inhibition at 0.1 µM stood at 50%. The figure for `COc1cc2nnc(-c3cc(C)on3)n2nc1OCc1cccc(C2(F)CNC2)n1` [Embodiment 70] is 31.7%; for `COc1cc2nnc(-c3cc(C)on3)n2nc1OCc1ccc(C2(F)CNC2)cn1` [Embodiment 71] it is 40.7%; for `COc1nccc(COc2nn3c(-c4cc(C)on4)nnc3cc2OC)n1` [Embodiment 72] it is 54.3%. In the case of `COc1cc2nnc(-c3cc(C)on3)n2nc1OCc1ccc2c(cnn2C)n1` [Embodiment 73] it was 34.5%. In the case of `COc1cc2nnc(-c3cc(C)on3)n2nc1OCc1cccn(C)c1=O` [Embodiment 74] it was 40.4%; in that of `CCn1cccc(COc2nn3c(-c4cc(C)on4)nnc3cc2OC)c1=O` [Embodiment 76], 41.6%.

On to `COc1cc2nnc(-c3cc(C)on3)n2nc1OCc1ccc2c(n1)CCN(CC(F)(F)F)C2` [Embodiment 77], for which the inhibition at 0.1 µM was found to be 44.8%. In the case of `CCN1CCc2nc(COc3nn4c(-c5cc(C)on5)nnc4cc3OC)ccc2C1` [Embodiment 79] it was 47.6%; in that of `COc1cc2nnc(-c3cc(C)on3)n2nc1OCc1ccc2c(n1)CCN(C(=O)C1CC1)C2` [Embodiment 81], 45.9%. The figure for `COc1cc2nnc(-c3cc(C)on3)n2nc1OCc1ccc2c(n1)CCN(CC1CC1)C2` [Embodiment 82] is 47.9%; for `COc1cc2nnc(-c3cc(C)on3)n2nc1OCc1ccc2c(n1)CCN(C(C)C)C2` [Embodiment 83] it is 39.9%. In the case of `COCCCOc1cnc(COc2nn3c(-c4cc(C)on4)nnc3cc2OC)cn1` [Embodiment 86], the inhibition at 0.1 µM stood at 41.8%.

For the molecule `COc1cc2nnc(-c3cc(C)on3)n2nc1OCc1ccc2c(n1)CCN(c1ccccc1)C2` [Embodiment 87, 3-(7-Methoxy-6-((6-phenyl-5,6,7,8-tetrahydro-1,6-naphthalen-2-yl)methoxy)-[1,2,4]triazolo[4,3-b]pyridazin-3-yl)-5-methylisoxazole], the inhibition at 0.1 µM was found to be 39.7%. The figure for `COc1cc2nnc(-c3cc(C)on3)n2nc1OCc1ccc2c(n1)CNC2=O` [Embodiment 89] is 47.2%; for `COc1cc2nnc(-c3cc(C)on3)n2nc1OCc1ccc2c(n1)CCN(CCC#N)C2=O` [Embodiment 91] it is 47.8%. With `COCCn1ccc2ccc(COc3nn4c(-c5cc(C)on5)nnc4cc3OC)nc21` [Embodiment 92], the inhibition at 0.1 µM was 52.8%. The figure for `COCCCn1ccc2ccc(COc3nn4c(-c5cc(C)on5)nnc4cc3OC)nc21` [Embodiment 93] is 36.5%; for `COc1cc2nnc(-c3cc(C)on3)n2nc1OCc1ccc2ccn(C)c2n1` [Embodiment 94] it is 32.9%. In the case of `COc1cc2nnc(-c3cc(C)on3)n2nc1OCc1ccc(C2(F)CCCNC2)cn1` (stereo not shown) [Embodiment 95] it was 48.1%; in that of `COc1cc2nnc(-c3cc(C)on3)n2nc1OCc1ccc(C2CCNC2)cn1` (stereo not shown) [Embodiment 96], 38.8%.

`COc1cc2nnc(-c3cc(C)on3)n2nc1OCc1ccc2c(ccn2C)n1` [Embodiment 97]: the inhibition at 0.1 µM was 32.6%. The figure for `COc1cc2nnc(-c3cc(C)on3)n2nc1OCc1ccc2c(n1)CNC2` [Embodiment 98] is 38%; for `COc1cc2nnc(-c3cc(C)on3)n2nc1OCc1ccc2ncn(C)c2n1` [Embodiment 101] it is 32.9%; for `COc1cc2nnc(-c3cc(C)on3)n2nc1OCc1cccc2cnnn12` [Embodiment 104] it is 48.2%.

Consider `COc1cc2nnc(-c3cc(C)on3)n2nc1OCc1ccc2nccn2n1` [Embodiment 105], for which the inhibition at 0.1 µM came to 49.3%. The figure for `COc1cc2nnc(-c3cc(C)on3)n2nc1OCc1ccc(OCC2CCCO2)cn1` (stereo not shown) [Embodiment 106] is 60.4%; for `C=CC(=O)N1CCc2nc(COc3nn4c(-c5cc(C)on5)nnc4cc3OC)ccc2C1` [Embodiment 108, 1-(2-(((7-Methoxy-3-(5-methylisoxazol-3-yl)-[1,2,4]triazolo[4,3-b]pyridazin-6-yl)oxy)methyl)-7,8-dihydro-1,6-naphthyridin-6(5H)-yl)prop-2-en-1-one] it is 54.9%; for `CCOC(=O)N1CCc2nc(COc3nn4c(-c5cc(C)on5)nnc4cc3OC)ccc2C1` [Embodiment 111, Ethyl 2-(((7-methoxy-3-(5-methylisoxazol-3-yl)-[1,2,4]triazolo[4,3-b]pyridazin-6-yl)oxy)methyl)7,8-dihydro-1,6-naphthyridine-6(5H)-carboxylate] it is 59.6%. The figure for `COc1cc2nnc(-c3cc(C)on3)n2nc1OCc1ccc(C2CCNCC2)cn1` [Embodiment 116] is 44.9%. Regarding `COc1cc2nnc(-c3cc(C)on3)n2nc1OCc1cccc2ccnn12` [Embodiment 117], the inhibition at 0.1 µM is 32.3%. As for `COc1cc2nnc(-c3cc(C)on3)n2nc1OCc1ccc2c(ncn2C)n1` [Embodiment 118], the inhibition at 0.1 µM worked out at 63.7%. In the case of `COc1cc2nnc(-c3cc(C)on3)n2nc1OCc1ccc2c(n1)NCCO2` [Embodiment 119] it was 35.9%.

`COc1cc2nnc(-c3cc(C)on3)n2nc1OCc1ccc2c(n1)CNCC2` [Embodiment 120]: the inhibition at 0.1 µM was 42.6%. In the case of `COc1cc2nnc(-c3cc(C)on3)n2nc1OCc1cc2c(cn1)OCCO2` [Embodiment 121] it was 37.4%; in that of `COc1cc2nnc(-c3cc(C)on3)n2nc1OCc1cccc(C2CCNC2)n1` (stereo not shown) [Embodiment 123], 36.7%; in that of `COc1cc2nnc(-c3cc(C)on3)n2nc1OCc1cccc(C2(F)CCNC2)n1` (stereo not shown) [Embodiment 125], 41.8%. In the case of `COc1cc2nnc(-c3cc(C)on3)n2nc1OCc1ccc2c(n1)CCN(C(=O)c1ccccc1)C2` [Embodiment 131] it was 52.2%; in that of `COCCOc1ccc(COc2nn3c(-c4noc(C)n4)nnc3cc2OC)nc1` [Embodiment 132], 57.3%; in that of `COc1cc2nnc(-c3cc(C)on3)n2nc1OCc1ccc(OCCN2CCC2)cn1` [Embodiment 133], 36.9%. With `CCN1CC(Oc2ccc(COc3nn4c(-c5cc(C)on5)nnc4cc3OC)nc2)C1` [Embodiment 134], the inhibition at 0.1 µM turned out to be 30.4%.

Regarding `COc1ccc2nc(COc3nn4c(-c5cc(C)on5)nnc4cc3OC)ccc2c1` [Embodiment 136], the inhibition at 0.1 µM came out at 37.3%.

With `COc1cc2nnc(-c3cc(C)on3)n2nc1OCc1ccc(-c2nc(C)no2)cn1` [Embodiment 137, 5-(6-(((7-Methoxy-3-(5-methylisoxazol-3-yl)-[1,2,4]triazolo[4,3-b]pyridazin-6-yl)oxy)methyl)pyridin-3-yl)-3-methyl-1,2,4-oxadiazole], the inhibition at 0.1 µM is 47.2%. In the case of `COc1cc2nnc(-c3cc(C)on3)n2nc1OCc1ccc2ccccc2n1` [Embodiment 138], the inhibition at 0.1 µM was 42.9%. In the case of `COCCCn1ccc2nc(COc3nn4c(-c5cc(C)on5)nnc4cc3OC)ccc2c1=O` [Embodiment 139] it was 49%.
